# Biological target: T1, full length active recombinant SYK enzyme (Homo sapiens, UniProt P43405)
# T1 construct: full length active recombinant SYK enzyme (Millipore, Calif.); purchased Millipore
# Assay: Inhibition of Syk tyrosine phosphorylation activity (LANCE TR-FRET kinase assay)
# Format: biochemical
row,Structure (SMILES),IC50 [nM]
1,"Cc1cc(Nc2cc(N[C@H](CC(C)C)C(N)=O)ccc2C(N)=O)no1 [Example 12, (R)-4-(1-amino-4-methyl-1-oxopentan-2-ylamino)-2-(5-methylisoxazol-3-ylamino)benzamide]",100 to 1000
2,"CC[C@@H](Nc1nc(Nc2ccc3c(ccn3C)c2)c(C(N)=O)cc1F)C(N)=O [Example 244, (R)-6-(1-amino-1-oxobutan-2-ylamino)-5-fluoro-2-(1-methyl-1H-indol-5-ylamino)nicotinamide]",100 to 1000
3,"Cc1cccc(Nc2nc(N[C@H](CC(C)C)C(N)=O)ccc2C(N)=O)c1 [Example 105, (R)-6-(1-amino-4-methyl-1-oxopentan-2-ylamino)-2-(m-tolylamino)nicotinamide]",100 to 1000
4,"NC(=O)c1ccc(N[C@@H]2CCCC[C@@H]2N)nc1Nc1csc2ncccc12 [Example 402, 6-((1R,2S)-2-aminocyclohexylamino)-2-(thieno[2,3-b]pyridin-3-ylamino)nicotinamide]",< 1
5,"Cc1cc(Nc2cc(N[C@@H](C(N)=O)C3CC3)c(F)cc2C(N)=O)sn1 [Example 215, (R)-4-(2-amino-1-cyclopropyl-2-oxoethylamino)-5-fluoro-2-(3-methylisothiazol-5-ylamino)benzamide]",10 to 100
6,"NC(=O)c1ccc(N[C@H](CC2CC2)C(N)=O)nc1Nc1ccc2cccnc2c1 [Example 214, (R)-6-(1-amino-3-cyclopropyl-1-oxopropan-2-ylamino)-2-(quinolin-7-ylamino)nicotinamide]",10 to 100
7,NC(=O)c1cc(F)c(N[C@@H]2CCCC[C@@H]2N)nc1Nc1ccc(-n2cncn2)cc1 [Example 50],1 to 10
8,"CC[C@H](Nc1nc(Nc2cccc(C)c2)c(C(N)=O)cc1F)C1(N)CC1 [Example 369, (S)-6-(1-(1-aminocyclopropyl)propylamino)-5-fluoro-2-(m-tolylamino)nicotinamide]",100 to 1000
9,"NC(=O)c1cc(F)c(N[C@H](CC2CC2)C(N)=O)nc1Nc1ccc2cccnc2c1 [Example 250, (R)-6-(1-amino-3-cyclopropyl-1-oxopropan-2-ylamino)-5-fluoro-2-(quinolin-7-ylamino)nicotinamide]",10 to 100
10,"C[C@H](N)CNc1nc(Nc2cccc(-n3cccn3)c2)c(C(N)=O)cc1F [Example 259, (S)-2-(3-(1H-pyrazol-1-yl)phenylamino)-6-(2-aminopropylamino)-5-fluoronicotinamide]",1 to 10
11,"NC(=O)c1ccc(N[C@@H]2CCCC[C@@H]2N)cc1Nc1ccc(F)cc1 [Example 3, 4-((1R,2S)-2-aminocyclohexylamino)-2-(4-fluorophenylamino)benzamide]",> 1000
12,"CC(C)[C@@H](Nc1nc(Nc2cnc3ccccc3c2)c(C(N)=O)cc1F)C(N)=O [Example 300, (R)-6-(1-amino-3-methyl-1-oxobutan-2-ylamino)-5-fluoro-2-(quinolin-3-ylamino)nicotinamide]",10 to 100
13,"NC(=O)c1cc(F)c(N[C@@H]2CCCC[C@@H]2N)nc1Nc1ccc2cnccc2c1 [Example 67, 6-((1R,2S)-2-aminocyclohexylamino)-5-fluoro-2-(isoquinolin-6-ylamino)nicotinamide]",< 1
14,COc1cncc(Nc2nc(N[C@@H]3CCCC[C@@H]3N)ccc2C(N)=O)c1 [Example 164],1 to 10
15,"Cc1cccc(Nc2nc(N[C@@H]3CCCC[C@@H]3N)c(F)cc2C(N)=O)c1 [Example 314, 6-((1R,2S)-2-aminocyclohexylamino)-5-fluoro-2-(m-tolylamino)nicotinamide]",1 to 10
16,"NC(=O)c1cc(F)c(N[C@@H]2CCCC[C@@H]2N)nc1Nc1ccc2nccnc2c1 [Example 76, 6-((1R,2S)-2-aminocyclohexylamino)-5-fluoro-2-(quinoxalin-6-ylamino)nicotinamide]",1 to 10
17,"CC[C@@H](Nc1nc(Nc2cccc3c2cnn3C)c(C(N)=O)cc1F)C(N)=O [Example 240, (R)-6-(1-amino-1-oxobutan-2-ylamino)-5-fluoro-2-(1-methyl-1H-indazol-4-ylamino)nicotinamide]",100 to 1000
18,"NC(=O)c1cc(F)c(N[C@@H](C(N)=O)C2CC2)nc1Nc1cnc2ccccc2c1 [Example 196, (R)-6-(2-amino-1-cyclopropyl-2-oxoethylamino)-5-fluoro-2-(quinolin-3-ylamino)nicotinamide]",10 to 100
19,"CC[C@@H](Nc1nc(Nc2cnc3cccnc3c2)c(C(N)=O)cc1F)C(N)=O [Example 236, (R)-6-(1-amino-1-oxobutan-2-ylamino)-5-fluoro-2-(1,5-naphthyridin-3-ylamino)nicotinamide]",100 to 1000
20,"CC[C@@H](Nc1nc(Nc2ccc3c(c2)OCO3)c(C(N)=O)cc1F)C(N)=O [Example 237, (R)-6-(1-amino-1-oxobutan-2-ylamino)-5-fluoro-2-(benzo[d][1,3]dioxol-5-ylamino)nicotinamide]",100 to 1000

row,Structure (SMILES),IC50 [nM]
1,"CC[C@@H](Nc1nc(Nc2ccc(C3CC[N+](C)([O-])CC3)cc2)c(C(N)=O)cc1F)C(N)=O (stereo partly drawn) [Example 308, (R)-4-(4-(6-(1-amino-1-oxobutan-2-ylamino)-3-carbamoyl-5-fluoropyridin-2-ylamino)phenyl)-1-methylpiperidine 1-oxide]",100 to 1000
2,"NC(=O)c1cc(F)c(N[C@@H]2CCCC(F)(F)[C@@H]2N)nc1Nc1ccc2ncsc2c1 [Example 328, 6-((1R,2R)-2-amino-3,3-difluorocyclohexylamino)-2-(benzo[d]thiazol-6-ylamino)-5-fluoronicotinamide]",10 to 100
3,"NC(=O)c1cc(F)c(N[C@@H]2CCCC[C@@H]2N)nc1Nc1cncc(-n2cccn2)c1 [Example 155, 2-(5-(1H-pyrazol-1-yl)pyridin-3-ylamino)-6-((1R,2S)-2-aminocyclohexylamino)-5-fluoronicotinamide]",> 1000
4,"NC(=O)c1cc(F)c(N[C@H]2[C@@H](N)CCCC2(F)F)nc1Nc1cccc(Cl)c1 [Example 388, 6-((1S,6S)-6-amino-2,2-difluorocyclohexylamino)-2-(3-chlorophenylamino)-5-fluoronicotinamide]",1 to 10
5,"COc1cncc(Nc2nc(N[C@@H]3CCCC[C@@H]3N)c(F)cc2C(N)=O)c1 [Example 88, 6-((1R,2S)-2-aminocyclohexylamino)-5-fluoro-2-(5-methoxypyridin-3-ylamino)nicotinamide]",1 to 10
6,N#Cc1cc(C(N)=O)c(Nc2ccc3[nH]ncc3c2)nc1N[C@@H]1CCCC[C@@H]1N [Example 117],1 to 10
7,"Cc1cc(Nc2cc(N[C@H](CC(C)C)C(N)=O)cc(F)c2C(N)=O)sn1 [Example 19, (R)-4-(1-amino-4-methyl-1-oxopentan-2-ylamino)-2-fluoro-6-(3-methylisothiazol-5-ylamino)benzamide]",> 1000
8,"NC(=O)c1cc(F)c(N[C@@H]2CCCC[C@@H]2N)nc1Nc1cccc(N2CCOCC2)c1 [Example 48, 6-((1R,2S)-2-aminocyclohexylamino)-5-fluoro-2-(3-morpholinophenylamino)nicotinamide]",10 to 100
9,"NC(=O)c1cc(F)c(N[C@@H]2CCCC[C@@H]2N)nc1Nc1ccnc(-n2cccn2)c1 [Example 190, 2-(2-(1H-pyrazol-1-yl)pyridin-4-ylamino)-6-((1R,2S)-2-aminocyclohexylamino)-5-fluoronicotinamide]",10 to 100
10,"Cc1cc(Nc2cc(N[C@H](CC3CC3)C(N)=O)ccc2C(N)=O)sn1 [Example 35, (R)-4-(1-amino-3-cyclopropyl-1-oxopropan-2-ylamino)-2-(3-methylisothiazol-5-ylamino)benzamide]",10 to 100
11,"NC(=O)c1ccc(N[C@@H]2CCCC[C@@H]2N)nc1Nc1ccc2[nH]ncc2c1 (relative stereo) [Example 141, 6-(cis-2-aminocyclohexylamino)-2-(1H-indazol-5-ylamino)nicotinamide]",1 to 10
12,"N#Cc1cc(C(N)=O)c(Nc2cccc(-n3nccn3)c2)nc1NC[C@@H](N)C1CC1 [Example 111, (S)-2-(3-(2H-1,2,3-triazol-2-yl)phenylamino)-6-(2-amino-2-cyclopropylethylamino)-5-cyanonicotinamide]",100 to 1000
13,"CC(C)Cn1ccc2c(Nc3nc(N[C@@H]4CCCC(F)(F)[C@@H]4N)c(F)cc3C(N)=O)cccc21 [Example 392, 6-((1R,2R)-2-amino-3,3-difluorocyclohexylamino)-5-fluoro-2-(1-isobutyl-1H-indol-4-ylamino)nicotinamide]",100 to 1000
14,"Cc1cc(F)cc(Nc2nc(N[C@@H]3CCCC[C@@H]3N)c(F)cc2C(N)=O)c1 [Example 321, 6-((1R,2S)-2-aminocyclohexylamino)-5-fluoro-2-(3-fluoro-5-methylphenylamino)nicotinamide]",< 1
15,"NC(=O)c1ccc(N[C@@H]2CCCC[C@@H]2N)nc1Nc1ccc2ncsc2c1 [Example 403, 6-((1R,2S)-2-aminocyclohexylamino)-2-(benzo[d]thiazol-6-ylamino)nicotinamide]",1 to 10
16,"NC(=O)c1ccc(N[C@H](CC2CC2)C(N)=O)nc1Nc1cnc2ccccc2c1 [Example 212, (R)-6-(1-amino-3-cyclopropyl-1-oxopropan-2-ylamino)-2-(quinolin-3-ylamino)nicotinamide]",1 to 10
17,"NC(=O)c1cc(F)c(N[C@@H]2CCCC[C@@H]2N)nc1Nc1ccc(-c2ncccn2)cc1 [Example 58, 6-((1R,2S)-2-aminocyclohexylamino)-5-fluoro-2-(4-(pyrimidin-2-yl)phenylamino)nicotinamide]",1 to 10
18,"NC(=O)c1cc(F)c(N[C@@H]2CCCC[C@@H]2N)nc1Nc1cccc(-n2cccn2)c1 [Example 45, 2-(3-(1H-pyrazol-1-yl)phenylamino)-6-((1R,2S)-2-aminocyclohexylamino)-5-fluoronicotinamide]",1 to 10
19,"Cc1cc(Nc2cc(N[C@H](Cc3cccc(F)c3)C(N)=O)c(F)cc2C(N)=O)sn1 [Example 37, (R)-4-(1-amino-3-(3-fluorophenyl)-1-oxopropan-2-ylamino)-5-fluoro-2-(3-methylisothiazol-5-ylamino)benzamide]",10 to 100

# From patent publication US8846928B2 (Portola Pharmaceuticals, Inc., priority 2010, dated 2014)
